Experiment: xn = mol fraction of the nth substance listed

CCCCCCCCCCCC + CC(C)O
viscosity [mPa·s], 101.32 kPa
Details	293.15 K	298.15 K	303.15 K
x2 = 0.0422	1.446	1.325	1.219
x2 = 0.0957	1.424	1.306	1.191
x2 = 0.2215	1.397	1.276	1.177
x2 = 0.3267	1.396	1.27	1.164
x2 = 0.3943	1.407	1.28	1.167
x2 = 0.4959	1.421	1.28	1.16
x2 = 0.5981	1.48	1.324	1.192
x2 = 0.6957	1.566	1.392	1.243
x2 = 0.8012	1.714	1.503	1.33
x2 = 0.9005	1.92	1.674	1.467
x2 = 0.9502	2.101	1.815	1.58

NC(N)=O + CC(C)O
viscosity [mPa·s], 101 kPa
Details	293.15 K	298.15 K	303.15 K	308.15 K	313.15 K	318.15 K	323.15 K
x1 = 0.02132	2.552	2.196	1.899	1.65	1.44	1.262	1.111
x1 = 0.02695	2.58	2.22	1.92	1.669	1.457	1.277	1.124
x1 = 0.03401	2.6	2.243	1.944	1.693	1.481	1.301	1.147

OCCOCCOCCO + CC(C)O
viscosity [mPa·s], 100 kPa
Details	x1 = 0.081	x1 = 0.1598	x1 = 0.2401	x1 = 0.3501	x1 = 0.44	x1 = 0.5601	x1 = 0.6501	x1 = 0.74	x1 = 0.8498	x1 = 0.9398
293.15 K	4.61	6.73	9.06	12.51	15.58	20.36	24.67	29.58	36.45	43.07
298.15 K	3.54	5.11	6.84	9.44	11.82	15.58	18.9	22.75	28.15	33.34
303.15 K	3.21	4.58	5.98	8.15	10.07	13.01	15.62	18.54	22.62	26.49
308.15 K	2.65	3.73	4.95	6.7	8.26	10.68	12.73	15.05	18.28	21.38
313.15 K	2.22	3.12	4.05	5.45	6.71	8.67	10.32	12.22	14.86	17.32
318.15 K	1.97	2.79	3.63	4.83	5.88	7.5	8.82	10.32	12.42	14.36
323.15 K	1.8	2.54	3.32	4.44	5.39	6.74	7.86	9.07	10.68	12.14

CCOC(=O)OCC + CC(C)OC(C)C
viscosity [mPa·s], 100 kPa
Details	x1 = 0.0986	x1 = 0.1988	x1 = 0.3012	x1 = 0.4026	x1 = 0.4998	x1 = 0.5976	x1 = 0.7008	x1 = 0.8014	x1 = 0.9009
303.15 K	0.325	0.351	0.379	0.409	0.442	0.481	0.528	0.58	0.636
308.15 K	0.309	0.332	0.359	0.387	0.419	0.455	0.497	0.546	0.599
313.15 K	0.296	0.317	0.341	0.369	0.398	0.432	0.472	0.516	0.566

CC(C)[C@@H]1CC[C@@H](C)C[C@H]1O + CC(O)CCO
Details	viscosity [mPa·s]
298.15 K, 101.33 kPa, x1 = 0.5	140.3

CC(C)[C@@H]1CC[C@@H](C)C[C@H]1O + CC(O)CO
Details	viscosity [mPa·s]
298.15 K, 101.33 kPa, x1 = 0.5	81.72

CCCCCCCCCCO + CCC(C)=O
viscosity [mPa·s], 100 kPa
Details	x2 = 0.0798	x2 = 0.1601	x2 = 0.2392	x2 = 0.3498	x2 = 0.4401	x2 = 0.5602	x2 = 0.6496	x2 = 0.7411	x2 = 0.8502	x2 = 0.9406
293.15 K	11.4	8.94	7.3	5.65	4.57	3.24	2.34	1.68	1.01	0.6
303.15 K	7.99	6.34	4.92	3.65	2.75	2	1.52	1.11	0.74	0.49
313.15 K	5.31	4.24	3.39	2.42	1.88	1.39	1.1	0.82	0.58	0.4
323.15 K	3.95	3.23	2.64	1.93	1.52	1.13	0.87	0.66	0.48	0.36

— the CheMixHub viscosity set
